# Laboratory results from patent publication US10258697B2, “Efficient delivery of therapeutic molecules in vitro and in vivo” (Massachusetts Eye and Ear Infirmary, priority 2014, dated 2019).
# No end group written: not given here.
# Legend:
# [1] = system: cochlear hair cells of Rosa-tdTomato f/f (floxP-tdTomato) mice; assay: Supercharged GFP-Cre delivery to hair cells of tdTomato reporter mouse cochlea in vivo; details: for hair cells tdT-labeled: near the injection site (base turn of cochlea)
# Description: FIGS. 10A and 10B show the in vivo delivery of Cre recombinase to hair cells in the mouse inner ear. FIG. 10A: The scala media (cochlear duct) of P0 floxP-tdTomato mice (n=4) were injected with 0.3 μL of 23 μM (−30)GFP-Cre in 50% RNAiMAX or with RNAiMAX alone (control). After 5 days, tdTomato expression indicative of Cre-mediated recombination was visualized using immunohistology. Red=tdTomato; green=Myo7a; white=Sox2; blue=DAPI. Yellow brackets indicate the outer hair cell (OHC) region. […] Red=tdTomato; green=Esp, white=Sox2; blue=DAPI, Scale bars: 10 μm.
# P1 floxP-tdTomato mice (The Jackson Laboratory) were used for (−30)GFP-Cre injection and P2 Atoh1-GFP mice (Dr. J Johnson, Southwestern Medical Center, University of Texas) were used for Cas9:sgRNA injection. Animals were used under protocols approved by the Massachusetts Eye & Ear Infirmary ALCUC committee. Mice were anesthetized by lowering their temperature on ice. Cochleostomies were performed by making an incision behind the ear to expose the cochlea. Glass micropipettes held by a micromanipulator were used to deliver the complex into the scala media, which allows access to inner ear hair cells. For delivery of (−30)GFP-Cre, 3 μL of 45 μM protein was mixed with 3 μL of either RNAiMAX or Lipofectamine 2000 and incubated at room temperature for 30 minutes prior to injection. Four mice were injected per treatment group. […]
# 5-10 days after injection, the mice were sacrificed and cochlea were harvested by standard protocols. […] To quantify the number of tdTomato positive cells after (−30)GFP-Cre or GFP negative cells after Cas9:sgRNA delivery, the total number of outer hair cells were counted in a region spanning 200 μm around the site of injection in the base turn of the cochlea. The efficiency of (−30)GFP-Cre-induced recombination or Cas9:sgRNA-induced genome modification was calculated as the percentage of outer hair cells that expressed tdTomato or that lost GFP expression. […]
# [2] = system: inner ear cell types (IHC, OHC, SC) of Rosa-tdT mouse; assay: (+36)-GFP-aurein-Cre injection into P3 Rosa-tdT mouse inner ear by cochleostomy; type: in vivo; details: 50 μM
# Description: FIGS. 11A-11E show the high efficiency of protein delivery mediated by aurein in the inner ear in vivo. […] FIG. 11E: In Opti-MEM injected control mice no tdT labeling was detected in any inner ear cells. Scale bars: 10 μm.
# It was next tested whether Aurein, an antimicrobial peptide, in combination with s-GFP, can serve as an effective carrier to deliver functional proteins into mouse inner ear cell types with high efficiency. (+36)-GFP-aurein-Cre was injected with different concentrations into P3 Rosa-tdT mouse inner ear by cochleostomy in vivo. The tissues were harvested 5 days later for immunolabeling to identify tdT^+ inner ear cell types. […] At 22.5 μM, 58% of OHC and 75% of IHC, as well as 8% of SC were tdT^+. At the highest 50 μM, 96% of OHC, 88% of IHC and 19% of SC were tdT^+. Some spiral ganglion neurons were also tdT at 22.5 and 50 μM (FIGS. 11A-11E and FIG. 12).
# BSR.LNL.tdTomato cells [3] = assay: Primary screen for cytosolic delivery of Cre recombinase (fluorescence image analysis); type: cell-based, hamster; details: for level of recombination of sortase-conjugated peptide-(+36 GFP)-Cre: 250 nM, primary screen
# Description: Initial screen of 20 peptide-(+36 GFP)-Cre conjugated proteins. Cytosolic Cre delivery results in recombination and tdTomato expression. The percentage of tdTomato positive cells was determined by fluorescence image analysis. […] Cells were washed and supplanted with full DMEM and incubated for 48 h. Error bars represent the standard deviation of three independent biological replicates.
# BSR.LNL.tdTomato cells were plated at 10,000 cells per well in black 384-well plates (Aurora Biotechnologies). […] Following incubation, the cells were washed three times with PBS+20 U/mL heparin. The cells were incubated a further 48 h in serum-containing media. Cells were fixed in 3% paraformaldehyde and stained with Hoescht 33342 nuclear dye. […] Images were exposed for 10 ms in the DAPI channel (Hoechst) and 500 ms in the dsRed channel (tdTomato). Image analysis was performed using the cell-scoring module of MetaXpress software (Molecular Devices). All nuclei were detected with a minimum width of 1 pixel, maximum width of 3 pixels, and an intensity of 200 gray levels above background. Positive cells were evaluated for uniform signal in the dsRed channel (minimum width of 5 pixels, maximum width of 30 pixels, intensity >200 gray levels above background, 10 μm minimum stained area). In total, nine images were captured and analyzed per well, and 16 wells were treated with the same fusion protein. The primary screen was completed in biological triplicate.
# Because Cre recombinase must enter the cell, escape endosomes, enter the nucleus, and catalyze recombination to generate tdTomato fluorescence, this assay reflects the availability of active, non-endosomal recombinase enzyme that reaches the nucleus.
# The reporter BSR.LNL.tdTomato cells were incubated with 250 nM of each peptide-(+36 GFP)-Cre protein in serum-free media.
# BSR.LNL.tdTomato cells [4] = assay: ATP-dependent cell viability assay (CELLTITER-GLO); details: 1 μM, 48 h after treatment
# Description: (§1) FIGS. 15A, 15B are graphs showing the efficacy and toxicity of recombinant expression fusions of aurein 1.2 (“E”) and citropin 1.3 (“U”). […] The percentage of tdTomato positive cells was determined by flow cytometry. Protein fusions were delivered at 125 nM, 250 nM, 500 nM, and 1 μM. […] Protein fusions were delivered at 125 nM, 250 nM, 500 nM, and 1 μM. […] Cells were treated with 250 nM protein for 4 h in serum-free media. Cells were washed and supplanted with full DMEM and incubated for 48 h. Error bars represent the standard deviation of three independent biological replicates.
# (§2) Uptake and delivery assays for Cre fusion proteins were performed as previously described (Cronican, J. J.; et al. ACS Chemical Biology 2010, 5, 747). Briefly, proteins were diluted in serum-free DMEM and incubated on the cells in 48-well plates for 4 h at 37° C. Following incubation, the cells were washed three times with PBS+20 U/mL heparin. The cells were incubated a further 48 h in serum-containing media prior to trypsinization and analysis by flow cytometry. […] Toxicity for alanine scan mutational analysis was determined with LIVE/DEAD fixable far-red dead cell stain (Life Technologies) with 635 nm laser and 670/30 nm filter.
# Next, the toxicity of each fusion protein was evaluated at a range of concentrations (125 nM to 1 μM) using an ATP-dependent cell viability assay at 48 h after treatment.
# [5] = system: cochlear inner hair cells, outer hair cells and supporting cells; type: in vivo
# Description: 0.4 μL of 50 μM+36 GFP-Cre or aurein 1.2-+36 GFP-Cre were injected into the scala media. […] Inner hair cells (IHC), outer hair cells (OHC) and supporting cells in the sensory epithelium (SE) were imaged for the presence of tdTomato, which is only expressed following Cre-mediated recombination. Hair cells were labeled with antibodies against the hair-cell marker Myo7a.
# P1-2 Gt(ROSA)26Sor^tm14(CAG-tdTomato)Hze mice were used for aurein 1.2-+36-GFP-Cre and +36-GFP-Cre injection. The Rosa26-tdTomato mice were from the Jackson Laboratory. Animals were used under protocols approved by the Massachusetts Eye & Ear Infirmary IACUC committee. Mice were anesthetized by hypothermia on ice. Cochleostomies were performed by making an incision behind the ear to expose the cochlea. Glass micropipettes held by a micromanipulator were used to deliver the complex into the scala media, which allows access to inner ear hair cells. The total delivery volume for every injection was 0.4 μL per cochlea and the release was controlled by a micromanipulator at the speed of 69 nL/min.
# To quantify the number of tdTomato positive cells after aurein 1.2-+36-GFP-Cre and +36-GFP-Cre, we counted the total number of inner and outer hair cells in a region spanning 100 μm in the apex, middle, and base turn of the cochlea.
# Both the hair cells (Myo7a+) and supporting cells (Myo7a−) were evaluated for td Tomato signal.
# mouse retina = details: +36 GFP-Cre alone; cited from earlier work
# [6] = system: glucocorticoid receptor (GR-mCherry) in HeLa cells; assay: GR-mCherry translocation assay; type: cell-based; details: 1 μM for 30 min, HeLa cells expressing GR-mCherry
# Description: One day prior to transfection 10,000 HeLa cells in 200 μL of DMEM (10% FBS, 1× Pen-Strep) were plated into single wells of a 96-well MATRICAL glass bottom microplate (MGB096-1-2-LG-L) and allowed to adhere overnight. The following day, cells were transfected with GRmCherry using LIPOFECTAMINE® 2000 technologies. Following transfection, cells were allowed to recover overnight in DMEM (+10% FBS). The following day, cells were treated with dexamethasone (Dex) or 1 μM Dex-protein conjugate in the presence or absence of inhibitor diluted into DMEM (without phenol red, +300 nM Hoescht33342). After 30 min, cells were washed twice with 200 μL of HEPES-Krebs-Ringer's (HKR) buffer (140 mM NaCl, 2 mM KCl, 1 mM CaCl2, 1 mM MgCl2, and 10 mM HEPES at pH 7.4), after which 100 μL of HKR buffer was overlaid onto the cells and images were acquired on a Zeiss Axiovert 200M epifluorescence microscope outfitted with Ziess AxiocammRM camera and an EXFO-Excite series 120 Hg arc lamp. The translocation ratio (the ratio of median […] intensity in the nuclear and surrounding regions) for individual cells was measured using CELLPROFILER® as described 36. […]
# Although endosomal escape is widely considered to be the major bottleneck of cationic protein delivery (Sahay, G.; et al. Nature Biotechnology 2013, 31, 653), few assays quantify the ability of proteins to escape endosomes on a single-cell basis.
# BSR.LNL.tdTomato cells [7] = assay: Cre delivery assay with expressed fusion proteins (flow cytometry); type: cell-based, hamster; details: 250 nM, compared with unmutated aurein 1.2-+36 GFP-Cre
# Description: as §1
# as §2, with “cytometry. All flow cytometry were carried out on a BD Fortessa flow cytometer (Becton-Dickinson) using 530/30 nm and 610/20 nm filter sets.” for “cytometry.”
# BSR.LNL.tdTomato cells [8] = assay: Toxicity of aurein 1.2 variants fused to +36 GFP-Cre; type: cell-based, hamster; details: 250 nM
# Excerpt: FIGS. 16A, 16B are graphs showing the activity and cytotoxicity of aurein 1.2 variants fused to +36 GFP-Cre (FIG. 16A). […] (FIG. 16B) Toxicity as determined by CELLTITERGLO (Promega) assay.
substance,measurement,setting,value
"(−30)GFP-Cre: negatively supercharged GFP fused to Cre recombinase, SEQ ID NO: 4",hair cells tdT-labeled,[1],~30%
same,stereocilia of tdTomato-positive outer hair cells,"[1]; ten days after delivery, 23 μM in 50% RNAiMAX, P0 floxP-tdTomato mice",intact espin (Esp)-expressing stereocilia
"+36 GFP-Cre: superpositively charged GFP fused to Cre recombinase, SEQ ID NO: 1",hair cells tdT-labeled,[1],~30%
same,tdT labeling of cochlear cell types,[2],very few IHC and HC were labeled with tdT
same,recombined cells with chloroquine (positive control),BSR.LNL.tdTomato cells [3]; 250 nM protein incubated with 100 μM chloroquine,48%
same,cells expressing tdTomato (recombined cells),"BSR.LNL.tdTomato cells [3]; 250 nM protein, 4 h serum-free media, then 48 h",4.5%
same,cell viability,BSR.LNL.tdTomato cells [4],85%
same,Cre-mediated recombination in inner hair cells (IHC),"[5]; apex, 50 μM",4.4%
same,recombination in mouse retina,mouse retina,modest levels of recombination
"Arg8^Dex: canonical cell permeable peptide (SEQ ID NO: 102), dexamethasone-labeled positive control (RRRRRRRR; also: dexamethasone label)",nuclear-to-cytoplasm translocation ratio (TR),[6],1.63
"GLFDIIKKIAEAF [S12A, aurein 1.2 variant expressed as fusion with +36 GFP-Cre]",recombination efficiency of aurein 1.2 variants fused to +36 GFP-Cre,BSR.LNL.tdTomato cells [7],potentially improved overall recombination efficiency
same,toxicity of aurein 1.2 variants,BSR.LNL.tdTomato cells [8],increased toxicity
GLFDIIKKIAESF [aurein 1.2],level of recombination of sortase-conjugated peptide-(+36 GFP)-Cre,BSR.LNL.tdTomato cells [3],highest level of recombination
same,potency of Cre delivery into cochlear hair cells when fused with aurein 1.2 vs absence of the peptide,[5]; live mice,> 20 fold
GLFDIIKKVASVIGGL (listed as Litoria citropa) [citropin 1.3],level of recombination of sortase-conjugated peptide-(+36 GFP)-Cre,BSR.LNL.tdTomato cells [3],moderate level of recombination
"GLFDIIKRIAESF [K8R, aurein 1.2 variant expressed as fusion with +36 GFP-Cre]",recombination efficiency of aurein 1.2 variants fused to +36 GFP-Cre,BSR.LNL.tdTomato cells [7],potentially improved overall recombination efficiency
same,toxicity of aurein 1.2 variants,BSR.LNL.tdTomato cells [8],increased toxicity
